Consider 32 compounds from patent US5574070A, “Substituted guanidines having high binding to the sigma receptor and the use thereof” (priority 1993, dated 1996).

This experiment deals with sigma receptor. The experiment can be described thus: [3H]DTG displacement radioligand binding assay, guinea pig brain membranes. The following applies: for displacement of [3H]DTG: 10 uM.
Where [1] appears, read: Example 25, guinea pig brain membrane homogenates, read-out: IC50 binding values.
Setting [2] is: list of especially preferred compounds, read-out: IC50 (high binding to the sigma receptor).
Where [3] appears, read: read-out: IC50 vs [3H]DTG, Table I, guinea pig brain membranes.

“Also recorded” adds a separate entry of the source. Like-named read-outs stand apart in the source and are kept apart here. Some results are limits rather than exact numbers.

As for `CN1CCc2cccc3c2[C@H]1Cc1ccc(O)c(O)c1-3` [apomorphine, reference compound], the “displacement of [3H]DTG” value is on record as “no significant displacement”.
`CN(C)CCCN1c2ccccc2Sc2ccc(C(F)(F)F)cc21` [Trifluopromazine, reference compound]: the IC50 (commonly the concentration that gives 50% inhibition) (read-out: IC50 vs. [3H]DTG) amounted to 0.605 ± 0.067 µM.
As to `Cc1cc(I)ccc1NC(=N)Nc1ccc(I)cc1C` [N,N'-di-(2-methyl-4-iodophenyl)guanidine], the “in vitro [3H]DTG displacement activity” value was “found to possess the aforesaid in vitro [^3 H]DTG displacement activity”.
As to `CNCCC=C1c2ccccc2CCc2ccccc21` [Nortriptyline, reference compound], the IC50 (read-out: IC50 vs. [3H]DTG) came to 2 µM.
On to `Cc1ccccc1NC(=N)Nc1ccc([N+](=O)[O-])cc1C` [N-(2-Methyl-4-nitrophenyl)-N'-(2-methyl-phenyl)guanidine], for which the “in vitro [3H]DTG displacement activity” value was “found to possess the aforesaid in vitro [^3 H]DTG displacement activity”. Besides, under setting [1], the IC50 came to 0.037 µM. Moreover, under setting [2], the IC50 turned out to be 0.037 µM. Further, the IC50 under setting [3] was 0.037 ± 0.005 µM.
With `Cc1ccccc1NC(=N)N[C@H]1C[C@@H]2CC[C@@]1(C)C2(C)C` (relative stereo) [N-(exo-2-isobornyl)-N'-(o-tolyl)guanidine], the “in vitro [3H]DTG displacement activity” value was “found to possess the aforesaid in vitro [^3 H]DTG displacement activity”. In addition, the IC50 under setting [1] stood at 0.025 µM. Further, under setting [2], the IC50 was found to be 0.025 µM.
Turning to `CN(CC(=O)O)C(=N)N` [creatine, reference compound], the “displacement of [3H]DTG” value was “no significant displacement”.
On to `CN1CC(=O)NC1=N` [creatinine, reference compound], for which the “displacement of [3H]DTG” value is on record as “no significant displacement”.
In the case of `N=C(NC1CC2CCC1C2)NC1CC2CCC1C2` (stereo not drawn) [N,N'-di-(exo-2-norbornyl)guanidine], the “in vitro [3H]DTG displacement activity” value was “found to possess the aforesaid in vitro [^3 H]DTG displacement activity”. For the same compound, the IC50 under setting [1] came to 0.022 µM. The IC50 under setting [2] was 0.022 µM.
For the compound `C[N+](C)(C)CCCCCC[N+](C)(C)C` [hexamethonium, reference compound], the “displacement of [3H]DTG” value is “no significant displacement”.
For the compound `Cc1cccc(C)c1NC(=N)Nc1c(C)cccc1C` [DXG, N,N'-di-(2,6-dimethylphenyl)guanidine], the “in vitro [3H]DTG displacement activity” value was “found to possess the aforesaid in vitro [^3 H]DTG displacement activity”. The IC50 under setting [1] was determined as 0.09 ± 0.018 µM. For the same compound, the IC50 under setting [2] came out at 0.09 µM. The IC50 under setting [3] worked out at 0.09 ± 0.018 µM.
On to `N=C(NCc1ccccc1)NCc1ccccc1` [N,N'-dibenzylguanidine], for which the “in vitro [3H]DTG displacement activity” value was “found to possess the aforesaid in vitro [^3 H]DTG displacement activity”. Further, the IC50 under setting [1] came to 0.09 µM. Besides, the IC50 under setting [2] was 0.09 µM.
In the case of `N=C(NC1CCCCC1)NC1CCCCC1` [N,N'-di(cyclohexyl)guanidine], the “in vitro [3H]DTG displacement activity” value is “found to possess the aforesaid in vitro [^3 H]DTG displacement activity”. The IC50 under setting [1] was determined as 0.071 µM. The IC50 under setting [2] came to 0.071 µM. The concentration for half-maximal inhibition (IC50) under setting [3] is 0.071 ± 0.007 µM.
As for `CN(C)CCCN1c2ccccc2CCc2ccccc21` [Imipramine, reference compound], for the setting “read-out: IC50 vs. [3H]DTG”, the IC50 was 0.52 ± 0.014 µM.
As for `N=C1Nc2ccccc2-c2ccccc2N1` [Bridge-DPG, 2-imino-1,3H-dibenzo[d,f]-[1,3]-diazepine], the IC50 under setting [1] is above 10 µM.
With `CC12CC3CC(C)(C1)CC(NC(=N)Nc1ccccc1I)(C3)C2` [N-(3,5-dimethyl-1-adamantanyl)-N'-(o-iodophenyl)guanidine], the “in vitro [3H]DTG displacement activity” value is “found to possess the aforesaid in vitro [^3 H]DTG displacement activity”. Also, the IC50 under setting [1] was 0.016 µM. For the same compound, the IC50 under setting [2] is 0.016 µM.
On to `CN(C)CCCN1c2ccccc2Sc2ccc(Cl)cc21` [Chlorpromazine, reference compound], for which the IC50 runs as follows: (read-out: IC50 binding values) 1.48 ± 0.265 µM; (read-out: IC50 vs. [3H]DTG) 1.48 µM.
Consider `CNC(=N)NC` [DMG, N,N'-di(methyl)guanidine, reference compound], for which, under setting [1], the IC50 is above 10 µM.
Take `Cc1cc(Br)ccc1NC(=N)NC12CC3CC(CC(C3)C1)C2` [N-(adamant-1-yl)-N'-(p-bromo-o-tolyl)guanidine]: the “in vitro [3H]DTG displacement activity” value was “found to possess the aforesaid in vitro [^3 H]DTG displacement activity”. Besides, the IC50 under setting [2] was determined as 0.0027 µM.
Turning to `O=C(CCCN1CCC(O)(c2ccc(Cl)cc2)CC1)c1ccc(F)cc1` [Haloperidol, reference compound], the “affinity for / displacement at the [3H]DTG binding site” value is listed as “all specific binding is displaceable by haloperidol; also recorded: highest displacement potency of all drugs tested”.
As to `C=CCN1CC[C@]23c4c5ccc(O)c4O[C@H]2C(=O)CC[C@@]3(O)[C@H]1C5` [naloxone, reference compound], the “displacement of [3H]DTG” value is recorded as “no significant displacement”.
`CCCCNC(=N)NCCCC` [N,N'-di-n-butyl-guanidine]: the “in vitro [3H]DTG displacement activity” value was “found to possess the aforesaid in vitro [^3 H]DTG displacement activity”. Besides, under setting [3], the IC50 is 0.75 ± 0.033 µM.
In the case of `Cc1ccccc1NC(=N)NC12CC3CC(C)(CC(C)(C3)C1)C2` [N-(3,5-dimethyladamantan-1-yl)-N'-(o-tolyl)guanidine], the “in vitro [3H]DTG displacement activity” value is “found to possess the aforesaid in vitro [^3 H]DTG displacement activity”. Further, the IC50 under setting [1] came out at 0.015 µM. The IC50 under setting [2] was 0.015 µM.
Turning to `CC(C)(C)NC(=N)Nc1ccccc1I` [N-(o-iodophenyl)-N'-(t-butyl)guanidine], the “in vitro [3H]DTG displacement activity” value is “found to possess the aforesaid in vitro [^3 H]DTG displacement activity”. Moreover, the IC50 under setting [1] worked out at 0.02 µM. Under setting [2], the concentration for half-maximal inhibition (IC50) turned out to be 0.02 µM.
Take `N=C(Nc1ccccc1I)NC1C2CC3CC(C2)CC1C3` (stereo not drawn) [N-(adamant-2-yl)-N'-(2-iodophenyl)guanidine]: the IC50 under setting [1] stood at 0.0052 µM and the IC50 under setting [2] worked out at 0.0035 µM.
With `Cc1ccccc1N(C)C(=N)NC12CC3CC(CC(C3)C1)C2` [N-(Adamantan-1-yl)-N'-(2-methylphenyl)-N'-methyl-guanidine], the IC50 runs as follows: under setting [2], 0.0226 µM; (read-out: IC50 vs [3H]DTG, Table II, ± s.e.m. (n)) 0.0226 µM.
For `N=C(N)NCCCC(=O)O` [gamma-guanidino butyric acid, reference compound], the “displacement of [3H]DTG” value is recorded as “no significant displacement”.
As to `Cc1cc(Br)ccc1NC(=N)Nc1ccc(Br)cc1C` [Example 4-Br--DTG, N,N'-Di-(4-bromo-2-methylphenyl)guanidine], the “in vitro [3H]DTG displacement activity” value was “found to possess the aforesaid in vitro [^3 H]DTG displacement activity”. Besides, the IC50 under setting [1] was 0.037 µM. Under setting [2], the IC50 is 0.037 µM. Besides, under setting [3], the IC50 was determined as 0.037 ± 0.003 µM.
In the case of `Cc1ccccc1NC(=N)N[C@@H]1C[C@@H]2CC[C@H]1C2` (relative stereo) [N-((±)-endo-2-norbornyl)-N'-(2-methylphenyl)guanidine], under setting [2], the IC50 amounted to 0.006 µM.
With `N=C(NC1CC2CCC1C2)NC1CC2CCC1C2` (racemic) [N,N'-di-((±)-endo-2-norbornyl)guanidine], the “in vitro [3H]DTG displacement activity” value was “found to possess the aforesaid in vitro [^3 H]DTG displacement activity”. The IC50 under setting [1] is 0.016 µM. Besides, under setting [2], the IC50 turned out to be 0.016 µM.
With `N=C(N)NCCC(=O)O` [beta-guanidino propionic acid, reference compound], the “displacement of [3H]DTG” value is reported as “no significant displacement”.
For dynorphin A [reference compound], the “displacement of [3H]DTG” value is reported as “no significant displacement”.
